Earlier results in patent US20090023644A1 (priority 2004, published 2009).
Like-named read-outs stand apart in the source and are kept apart here.

How the values were obtained:
[1] = 600 ng/min
[2] = 8 ng/kg/min IV infusion for 8 hours
[3] = IV infusion 10 or 20 minutes at 0.8, 3.2 or 16 ng/kg/min

In the case of Calcitonin gene-related peptide [CGRP], the cardiac output [3] is given as “increase”, the systemic vascular resistance [3] is given as “decreased” and the tachycardia [3] is given as “no tachycardia observed”. For the same substance, the “type of vasodilator behaviour” value (at lower doses) was “pure arteriolar vasodilator”, the “type of vasodilator behaviour” value (at the higher dose) was “mixed vasodilator” and the “discontinuation of infusion due to nausea, diarrhea, and/or severe facial flushing” value ([1]; 48-hour continuous IV infusion) was “discontinued after 28 hours in 3 out of the 6 patients”. For the same substance, the “hemodynamic functions such as left ventricular function” value ([1]; pulsed therapy) was “improve”, the unfavorable side effects ([1]; pulsed therapy) was “tachycardia and neurohumoral response were also observed” and the tolerability ([1]; pulsed therapy (2-8 hour infusions for two consecutive days)) was “well tolerated”. The cardiac output [2] was “increased”, the “pulmonary and systemic arterial pressure” value [2] was “decreased” and the “time to loss of hemodynamic effects after stopping CGRP infusion” value [2] was ≤ 30 min. The vascular resistance [2] was “decreased”, the glomerular filtration ([2]; during treatment) was “increased” and the renal blood flow ([2]; during treatment) was “increased”.
